Reference: patent publication US20230174608A1, “Polypeptide Derivative Having Dual Receptor Agonistic Action and Use Thereof” (TIANJIN INSTITUTE OF PHARMACEUTICAL RESEARCH CO., LTD., priority 2020, published 2023)
Marks after values point to notes of the source that are not given here. Where a SMILES comes first, the peptide text is derived from it.

Experiments:
[1] = biological target: T1, GCGR (Homo sapiens, UniProt P47871); experiment: GC receptor-mediated cAMP production in vitro; type: cell-based; details: HEK293 cell line stably expressing GCGR
T1 construct: expressed in transfected cells
T1 sequence (P47871 26-477, species assumed): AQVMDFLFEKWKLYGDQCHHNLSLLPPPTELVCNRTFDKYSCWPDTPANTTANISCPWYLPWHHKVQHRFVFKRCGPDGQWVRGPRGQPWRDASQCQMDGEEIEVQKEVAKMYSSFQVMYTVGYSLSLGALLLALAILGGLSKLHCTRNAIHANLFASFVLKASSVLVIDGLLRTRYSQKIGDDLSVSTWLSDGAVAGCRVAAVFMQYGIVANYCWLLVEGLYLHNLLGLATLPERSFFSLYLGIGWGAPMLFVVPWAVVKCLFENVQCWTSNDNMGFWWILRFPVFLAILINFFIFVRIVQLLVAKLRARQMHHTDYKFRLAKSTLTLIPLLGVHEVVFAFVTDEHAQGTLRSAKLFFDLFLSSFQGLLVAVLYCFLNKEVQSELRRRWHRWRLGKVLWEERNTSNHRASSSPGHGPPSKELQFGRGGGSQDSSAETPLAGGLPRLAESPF
How it was run: (§1)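 HEK293 cells stably expressing human GLP-1R or GCGR are stimulated with compound for 30 min in the dark in serum-free medium with 0.5 mM IBMX, with test dilutions spanning 1 μM down to 10^−3 nM. cAMP is detected after a 60 min room-temperature reaction as the 665/615 nm ratio.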

[2] = tested on: glucose loaded normal mice; experiment: Glucose loading test on normal mice after single administration; type: in vivo, Kunming mice; details: for Blood glucose reduction rate (%): after glucose loading, versus model control group; for Blood glucose level after glucose loading: glucose 2.5 g/kg intragastric 60 min after administration, measured 30 min after loading; for Blood glucose level after glucose loading / Fasting blood glucose level: n=5; for Fasting blood glucose level: normal mice fasted 6 h, 30 nmol/kg group
Procedure: The hypoglycemic action of each compound of Example 1 was assessed by a glucose loading test on normal mice after single administration.
Method: Kunming mice (male, with a weight of 20-22 g) were acclimated in a barrier environment animal room for 3 days, divided into a blank control group, a model control group, a positive control group, and test compound groups, 5 mice in each group, and fasted for 6 h. Saline was administered to each mouse in the blank control group and the model control group, the compounds and a positive control drug were respectively administered to each mouse in the test compound groups and the positive control group at a dose of 30 nmol/kg, and the positive control drug was semaglutide. 60 min after administration, glucose was intragastrically administered to each mouse in the model control group, the positive control group, and the test compound groups at a dose of 2.5 g/kg (0.01 mL·g^−1 weight), distilled water was administered to each mouse in the blank control group, and blood glucose levels were determined 30 min after glucose loading.

[3] = tested on: diet-induced obesity (DIO) mice; experiment: DIO model mice, weight after 2 weeks of administration; type: in vivo, C57BL/6N mice; details: 30 nmol/kg s.c. once a day, 14 days
Excerpt: Method: C57BL/6N mice were fed with H10060 high-fat diets to obtain diet-induced obesity (DIO) models, and mice in a control group (n=5) were fed with standard diets. One day before the first administration, the mice in the model group were randomly divided into 6 groups according to their weights (within a range of 40.5-50.5 g), i.e., a model control group, a positive control group, and test compound groups (dgc003, dgc004, dgc010, and dgc017), respectively, 5 mice in each group, which were administered once a day by subcutaneous injection. Saline was subcutaneously injected into each mouse in the blank control group and the model control group every day. The administration was performed for 14 days. The positive control drug and the test compounds were administered at a dose of 30 nmol/kg, and the administration volume for each group was 0.005 mL/g weight. The mice were weighed before each administration, and 72-h food intake was weighed every three days.

[4] = biological target: T2, GLP-1R (Homo sapiens, UniProt P43220); experiment: GLP-1 receptor-mediated cAMP production in vitro; type: cell-based; details: HEK293 cell line stably expressing GLP-1R
T2 construct: expressed in transfected cells
T2 sequence (P43220 24-463, species assumed): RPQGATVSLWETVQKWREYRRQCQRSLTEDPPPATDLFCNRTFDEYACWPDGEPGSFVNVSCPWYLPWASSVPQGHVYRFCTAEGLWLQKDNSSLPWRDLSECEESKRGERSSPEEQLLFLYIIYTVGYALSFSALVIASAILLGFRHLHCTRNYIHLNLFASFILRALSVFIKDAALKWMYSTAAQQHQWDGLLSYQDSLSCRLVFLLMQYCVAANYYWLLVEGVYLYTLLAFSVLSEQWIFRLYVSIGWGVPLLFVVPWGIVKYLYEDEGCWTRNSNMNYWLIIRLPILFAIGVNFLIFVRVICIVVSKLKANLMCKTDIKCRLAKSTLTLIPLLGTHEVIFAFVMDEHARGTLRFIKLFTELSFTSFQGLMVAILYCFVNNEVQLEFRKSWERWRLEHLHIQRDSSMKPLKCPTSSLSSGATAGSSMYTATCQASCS
How it was run: as §1

[5] = tested on: diet-induced obesity (DIO) mice; experiment: DIO mice, weight and blood glucose after multiple administrations at different doses; type: in vivo, C57BL/6N mice; details: for Fasting blood glucose (mmol/L) before the last administration / Blood glucose level (mmol/L) 0.5 h after glucose loading / Glycemic load reduction rate: Day 22; for Fasting blood glucose (mmol/L) before the last administration: fasted 16 h; for Blood glucose level (mmol/L) 0.5 h after glucose loading: glucose 1 g/kg intragastric 30 min after administration; for Glycemic load reduction rate: versus model control group; for Reduction rate of weight without fasting on day 21 compared to day 0: n=5
Excerpt: 40 C57BL/6N mice were purchased from Beijing Vital River Laboratory Animal Technology Co., Ltd. Mice in a model group (n=35) were fed with H10060 high-fat diets to obtain diet-induced obesity (DIO) models, mice in a blank control group (n=5) were fed with standard diets, and all the mice were fed for 36 weeks. On the day of the first administration, the mice in the model group were randomly divided into 7 groups according to their weights (within a range of 45-60 g), i.e., a model control group, positive control groups (semaglutide at doses of 10 nmol/kg and 30 nmol/kg, respectively), and test compound groups (dgc005 and dgc016 at doses of 10 nmol/kg and 30 nmol/kg, respectively), 5 mice in each group. The positive control drug and the test compounds were respectively subcutaneously injected into each mouse in the positive control groups and the test compound groups every day, saline was subcutaneously injected into each mouse in the blank control group and the model control group, and the administration was performed for 22 days (the administration volume for each group was 0.005 mL/g weight). The mice were weighed before each administration, and 72-h food intake was weighed every three days. The mice fasted for 16 h before the last administration, and 30 min after administration, a glucose solution (1 g/kg, the administration volume was 0.01 mL/g weight) was intragastrically administered to each mouse for glucose tolerance test. Blood glucose levels were determined 0.5 h after glucose loading.

[6] = tested on: diet-induced obesity (DIO) mice; experiment: Obese (DIO) model mice, 23 days of successive administration; type: in vivo, C57BL/6J Gpt mice; details: for Fasting blood glucose (mmol/L) before the last administration: fasted 16 h; for Fasting blood glucose (mmol/L) before the last administration / TC (total cholesterol) / TG (triglycerides): n=5; for Weight decreasing rate: 30 nmol/kg s.c. every day, without fasting before the last administration compared to day 1; for Examination of liver pathological section: HE stain, 2 animals; for TC (total cholesterol) / TG (triglycerides): after 23 days of administration
Excerpt: C57BL/6J Gpt mice (purchased from GemPharmatech (Jiangsu) Co., Ltd.) (6-8-week-old) were fed with H10060 high-fat diet (purchased from Beijing HFK Bioscience Co., Ltd.) to obtain diet-induced obesity (DIO) models, mice in a blank control group (n=5) were fed with standard diets, and all the mice were fed for 11 weeks after being purchased. One day before the first administration, the mice in the model group were randomly divided into 5 groups according to their weights (within a range of 39.5-49.5 g), i.e., a model control group, a positive control group, and test compound groups (dgc005, dgc016, and dgc020), respectively, 5 mice in each group, which were administered every day by subcutaneous injection. Saline was subcutaneously injected in the blank control group and the model control group every day. The administration was performed for 23 days. The positive control drug and the test compounds were administered at a dose of 30 nmol/kg, and the administration volume for each group was 0.005 mL/g weight. The mice were weighed before each administration, and 72-h food intake was weighed every three days. The mice fasted for 16 h before the last administration, fasting blood glucose levels were determined, blood was sampled from the orbital venous plexus to determine triglycerides and total cholesterol, and the liver was taken out for pathological section observation.
The liver of each C576L/6 mouse in the groups was fixed with 12% formaldehyde and prepared into a specimen, and the tissue block was repaired, dehydrated with graded alcohol, embedded in paraffin, stained with HE, and examined under a light microscope.

[7] = day 4 of administration, 30 nmol/kg s.c. daily
[8] = day 7 of administration, 30 nmol/kg s.c. daily
[9] = day 10 of administration, 30 nmol/kg s.c. daily
[10] = day 13 of administration, 30 nmol/kg s.c. daily

EC50 [1] [nM]	EC50 [4] [nM]	Compound	Blood glucose reduction rate (%) ([2]; 30 nmol/kg single dose)	Blood glucose level after glucose loading ([2]; 30 nmol/kg single dose)	Fasting blood glucose level [2] [mmol/L]	Weight decreasing rate by the last administration [3] [%]	Fasting blood glucose (mmol/L) before the last administration ([5]; 10 nmol/kg s.c. daily) [mmol/L]	Blood glucose level (mmol/L) 0.5 h after glucose loading ([5]; 10 nmol/kg s.c. daily) [mmol/L]	Glycemic load reduction rate ([5]; 10 nmol/kg s.c. daily)	Reduction rate of weight without fasting on day 21 compared to day 0 ([5]; 10 nmol/kg s.c. every day) [%]	Fasting blood glucose (mmol/L) before the last administration ([5]; 30 nmol/kg s.c. daily) [mmol/L]	Blood glucose level (mmol/L) 0.5 h after glucose loading ([5]; 30 nmol/kg s.c. daily) [mmol/L]	Glycemic load reduction rate ([5]; 30 nmol/kg s.c. daily)	Reduction rate of weight without fasting on day 21 compared to day 0 ([5]; 30 nmol/kg s.c. every day) [%]	Fasting blood glucose (mmol/L) before the last administration ([6]; 30 nmol/kg s.c. daily, 23 days) [mmol/L]	Weight decreasing rate [6] [%]	Examination of liver pathological section ([6]; 23 days, 30 nmol/kg s.c. daily)	TC (total cholesterol) ([6]; 30 nmol/kg s.c. daily)	TG (triglycerides) ([6]; 30 nmol/kg s.c. daily)	72-h food intake [6, 7] [g/mouse]	also measured
5.84	0.113	CCCCCCCCCCCCCCCC(=O)N[C@@H](CCC(=O)NCCCC[C@H](NC(=O)[C@H](C)NC(=O)[C@H](C)NC(=O)[C@H](CCCNC(=N)N)NC(=O)[C@H](CCC(=O)O)NC(=O)[C@H](CCC(=O)O)NC(=O)[C@H](CC(C)C)NC(=O)[C@H](Cc1ccc(O)cc1)NC(=O)[C@H](CCCCN)NC(=O)[C@H](CO)NC(=O)[C@H](Cc1ccc(O)cc1)NC(=O)[C@H](CC(=O)O)NC(=O)[C@H](CO)NC(=O)[C@@H](NC(=O)[C@H](Cc1ccccc1)NC(=O)[C@@H](NC(=O)CNC(=O)[C@H](CCC(N)=O)NC(=O)C(C)(C)NC(=O)[C@@H](N)Cc1c[nH]cn1)[C@@H](C)O)[C@@H](C)O)C(=O)N[C@@H](CCC(=O)O)C(=O)N[C@@H](Cc1ccccc1)C(=O)N[C@H](C(=O)N[C@@H](C)C(=O)N[C@@H](Cc1c[nH]c2ccccc12)C(=O)N[C@@H](CC(C)C)C(=O)N[C@@H](CCC(=O)O)C(=O)N[C@@H](C)C(=O)NCC(=O)NCC(N)=O)[C@@H](C)CC)C(=O)O [dgc004] (HELM PEPTIDE1{H.[Aib].Q.G.T.F.T.S.D.Y.S.K.Y.L.E.E.R.A.A.K.E.F.I.A.W.L.E.A.G.G.[am]}|PEPTIDE2{[CCCCCCCCCCCCCCCC(=O)[*:2]].[gGlu]}$PEPTIDE1,PEPTIDE2,20:R3-2:R2$$$V2.0; N-terminus assumed)	50.24	8.46 ± 2.28 mmol/L	3.42 ± 0.85	19.9	–	–	–	–	–	–	–	–	–	–	–	–	–	–	–
–	–	semaglutide [Positive control group, reference compound]	67.18	5.58 ± 1.55**^ mmol/L	3.78 ± 1.28	12.9	5.54 ± 1.11	7.06 ± 1.15	32.89	15.28	5.56 ± 0.91	8.20 ± 0.87	22.05	18.83	4.48 ± 0.84	20.9	mild to moderate lesions	3.97 ± 0.52^Δ mmol/L	0.90 ± 0.13**^ΔΔ mmol/L	3.50	72-h food intake [6, 8]: 5.80 g/mouse; 72-h food intake [6, 9]: 5.40 g/mouse; 72-h food intake [6, 10]: 5.50 g/mouse
1.16	0.484	CCCCCCCCCCCCCCCC(=O)N[C@@H](CCC(=O)N[C@@H](CCC(=O)NCCCC[C@H](NC(=O)[C@H](C)NC(=O)[C@H](C)NC(=O)[C@H](CCCNC(=N)N)NC(=O)[C@H](CCC(=O)O)NC(=O)[C@H](CCC(=O)O)NC(=O)[C@H](CC(C)C)NC(=O)[C@H](Cc1ccc(O)cc1)NC(=O)[C@H](CCCCN)NC(=O)[C@H](CO)NC(=O)[C@H](Cc1ccc(O)cc1)NC(=O)[C@H](CC(=O)O)NC(=O)[C@H](CO)NC(=O)[C@@H](NC(=O)[C@H](Cc1ccccc1)NC(=O)[C@@H](NC(=O)CNC(=O)[C@H](CCC(N)=O)NC(=O)C(C)(C)NC(=O)[C@@H](N)Cc1c[nH]cn1)[C@@H](C)O)[C@@H](C)O)C(=O)N[C@@H](CCC(=O)O)C(=O)N[C@@H](Cc1ccccc1)C(=O)N[C@H](C(=O)N[C@@H](C)C(=O)N[C@@H](Cc1c[nH]c2ccccc12)C(=O)N[C@@H](CC(C)C)C(=O)N[C@@H](CCC(=O)O)C(=O)N[C@@H](C)C(=O)NCC(=O)NCC(N)=O)[C@@H](C)CC)C(=O)O)C(=O)O [dgc005] (HELM PEPTIDE1{H.[Aib].Q.G.T.F.T.S.D.Y.S.K.Y.L.E.E.R.A.A.K.E.F.I.A.W.L.E.A.G.G.[am]}|PEPTIDE2{[CCCCCCCCCCCCCCCC(=O)[*:2]].[gGlu].[gGlu]}$PEPTIDE1,PEPTIDE2,20:R3-3:R2$$$V2.0; N-terminus assumed)	60.59	6.70 ± 1.88**^ mmol/L	3.96 ± 0.62	–	5.34 ± 1.20	7.52 ± 0.77	28.52	18.41	4.22 ± 2.13	7.82 ± 1.09	25.66	21.39	4.60 ± 0.34	27	no obvious pathological changes are seen in portal areas and interstitium	3.07 ± 0.50 mmol/L	0.58 ± 0.10**^#ΔΔ mmol/L	2.50	Inhibition of the rise of blood glucose after glucose loading (in words) ([2]; 30 nmol/kg single dose, normal mice): equivalent to that of the positive control drug; Effect on total cholesterol (in words) ([6]; 23 days, 30 nmol/kg s.c. daily): reduced total cholesterol (TC) in a certain extent; Effect on triglycerides (in words) ([6]; 23 days, 30 nmol/kg s.c. daily): significantly reduce triglycerides (TGs); 72-h food intake [6, 8]: 3.80 g/mouse; 72-h food intake [6, 9]: 4.20 g/mouse; 72-h food intake [6, 10]: 4.60 g/mouse
